Measurements from PubChem BioAssay AID248 (DTP/NCI, 2004).
Toxic doses and inconclusive results are not listed. Rule as the data show it: active = T/C of 150% or more; inactive = T/C below 125%.

Test system: L1210 leukemia ip in BDF1 mice, survival T/C
Experiment: NCI In Vivo Anticancer Drug Screen. Data for tumor model L1210 Leukemia (intraperitoneal) in B6D2F1 (BDF1) mice
Conditions: endpoint: mean survival time, higher = longer survival
Outline: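 Ratio derived from survival: compound-dosed mice over vehicle-dosed mice, all bearing a transplantable tumor.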

[1] = dose: 75.0 mg/kg/injection, schedule: Q01DX001 (ip), vehicle: saline
[2] = dose: 150.0 mg/kg/injection, schedule: Q01DX001 (ip), vehicle: saline
[3] = dose: 100.0 mg/kg/injection, schedule: Q01DX009 (ip), vehicle: Klucel (hydroxypropylcellulose) (HPC)
[4] = dose: 100.0 mg/kg/injection, schedule: Q04DX003 (ip), vehicle: Klucel (hydroxypropylcellulose) (HPC)
[5] = dose: 200.0 mg/kg/injection, schedule: Q01DX009 (ip), vehicle: Klucel (hydroxypropylcellulose) (HPC)
[6] = dose: 200.0 mg/kg/injection, schedule: Q04DX003 (ip), vehicle: Klucel (hydroxypropylcellulose) (HPC)
[7] = dose: 400.0 mg/kg/injection, schedule: Q01DX009 (ip), vehicle: Klucel (hydroxypropylcellulose) (HPC)
[8] = dose: 400.0 mg/kg/injection, schedule: Q04DX003 (ip), vehicle: Klucel (hydroxypropylcellulose) (HPC)
[9] = dose: 100.0 mg/kg/injection, schedule: Q01DX001 (ip), vehicle: carboxymethylcellulose (CMC)
[10] = dose: 200.0 mg/kg/injection, schedule: Q01DX001 (ip), vehicle: carboxymethylcellulose (CMC)
[11] = dose: 400.0 mg/kg/injection, schedule: Q01DX001 (ip), vehicle: carboxymethylcellulose (CMC)
[12] = dose: 100.0 mg/kg/injection, schedule: Q01DX001 (ip), vehicle: saline
[13] = dose: 200.0 mg/kg/injection, schedule: Q01DX001 (ip), vehicle: saline
[14] = dose: 400.0 mg/kg/injection, schedule: Q01DX001 (ip), vehicle: saline
[15] = dose: 100.0 mg/kg/injection, schedule: Q04DX003 (ip), vehicle: other
[16] = dose: 200.0 mg/kg/injection, schedule: Q04DX003 (ip), vehicle: other
[17] = dose: 400.0 mg/kg/injection, schedule: Q04DX003 (ip), vehicle: other
[18] = dose: 100.0 mg/kg/injection, schedule: Q04DX003 (ip), vehicle: saline
[19] = dose: 200.0 mg/kg/injection, schedule: Q04DX003 (ip), vehicle: saline

Measured: T/C

CN(C)CC1(c2ccccc2)CC[N+](C)(C)C1 (stereo not given)
inactive: [1] 89 % of control | [2] 93 % of control

CSc1ccc(NC(=O)Nc2cccc(C)n2)cc1
inactive: [3] 98 % of control | [4] 95 % of control | [5] 108 % of control | [6] 93 % of control | [7] 97 % of control | [8] 97 % of control

Nc1nc(N)c2nc(CNc3cccc4ccccc34)cnc2n1
inactive: dose: 10.0 mg/kg/injection, schedule: Q01DX009 (ip), vehicle: Klucel (hydroxypropylcellulose) (HPC) 102 % of control | dose: 20.0 mg/kg/injection, schedule: Q01DX009 (ip), vehicle: Klucel (hydroxypropylcellulose) (HPC) 102 % of control | dose: 40.0 mg/kg/injection, schedule: Q01DX009 (ip), vehicle: Klucel (hydroxypropylcellulose) (HPC) 100 % of control

CCOC(=O)C(CCc1cc2ccccc2[nH]1)(C(=O)OCC)N1C(=O)c2ccccc2C1=O
inactive: [3] 94 % of control | [5] 89 % of control | [7] 89 % of control

S=P(NCCCCCCNP(=S)(N1CC1)N1CC1)(N1CC1)N1CC1
inactive: [9] 104 % of control | [10] 112 % of control | [11] 119 % of control

O=C1C=C(C2OC(CO)C(O)C2O)C(=O)N1 (stereo not given)
inactive: dose: 6.0 mg/kg/injection, schedule: Q01DX015 (ip), vehicle: saline 113 % of control | dose: 6.0 mg/kg/injection, schedule: Q01DX Z (ip), vehicle: saline 115 % of control | dose: 6.2 mg/kg/injection, schedule: Q01DX001 (ip), vehicle: saline 97 % of control | dose: 9.0 mg/kg/injection, schedule: Q01DX001 (ip), vehicle: saline 101 % of control | dose: 9.0 mg/kg/injection, schedule: Q01DX015 (ip), vehicle: saline 113 % of control | dose: 9.0 mg/kg/injection, schedule: Q01DX Z (ip), vehicle: saline 122 % of control | dose: 12.0 mg/kg/injection, schedule: Q01DX001 (ip), vehicle: saline 100 % of control | dose: 12.5 mg/kg/injection, schedule: Q01DX001 (ip), vehicle: saline 109 % of control | dose: 15.0 mg/kg/injection, schedule: Q01DX001 (ip), vehicle: saline 106 % of control | dose: 15.0 mg/kg/injection, schedule: Q01DX015 (ip), vehicle: saline 122 % of control | dose: 15.0 mg/kg/injection, schedule: Q01DX Z (ip), vehicle: saline 110 % of control

Oc1cccc(C(c2ccccc2)C2CCCCC2)c1 (stereo not given)
inactive: dose: 100.0 mg/kg/injection, schedule: Q01DX001 (ip), vehicle: saline with Tween-80 98 % of control | dose: 200.0 mg/kg/injection, schedule: Q01DX001 (ip), vehicle: saline with Tween-80 88 % of control | dose: 400.0 mg/kg/injection, schedule: Q01DX001 (ip), vehicle: saline with Tween-80 98 % of control

CS(=O)(=O)OCC1CCCO1 (stereo not given)
inactive: dose: 50.0 mg/kg/injection, schedule: Q01DX001 (ip), vehicle: saline 107 % of control | [12] 98 % of control | [3] 98 % of control | [4] 108 % of control | [13] 98 % of control | [5] 111 % of control | [6] 103 % of control | [14] 101 % of control | [7] 93 % of control | [8] 104 % of control

CNc1ccccc1CO
inactive: [15] 95 % of control | [16] 104 % of control | [17] 107 % of control

Nc1nc(N)c(C=Nc2ccc(Br)cc2)c(Nc2ccc(Br)cc2)n1
inactive: dose: 50.0 mg/kg/injection, schedule: Q01DX001 (ip), vehicle: alcohol 100 % of control

OCC1OC(Sc2ncc3cnccn23)C(O)C(O)C1O (stereo not given)
inactive: dose: 100.0 mg/kg/injection, schedule: Q01DX005 (ip), vehicle: saline 100 % of control | dose: 200.0 mg/kg/injection, schedule: Q01DX005 (ip), vehicle: saline 100 % of control

O=C(N=Nc1c(O)[nH]c2ccccc12)c1ccccc1[N+](=O)[O-]
inactive: [9] 87 % of control | [10] 90 % of control | [11] 96 % of control

Cc1ccc(S(=O)(=O)NCCN)cc1
inactive: [18] 97 % of control | [19] 97 % of control

CCCCCCC/C=N/N=C/CCCCCCC
inactive: dose: 100.0 mg/kg/injection, schedule: Q01DX009 (ip), vehicle: other 97 % of control | [15] 97 % of control | dose: 200.0 mg/kg/injection, schedule: Q01DX009 (ip), vehicle: other 100 % of control | [16] 97 % of control | dose: 400.0 mg/kg/injection, schedule: Q01DX009 (ip), vehicle: other 112 % of control | [17] 109 % of control

Cc1ccc2c(ccc[n+]2C)c1
inactive: [1] 103 % of control | [2] 106 % of control

CNC(=S)C(=S)NC
inactive: dose: 12.5 mg/kg/injection, schedule: Q04DX003 (ip), vehicle: saline with Tween-80 94 % of control | dose: 25.0 mg/kg/injection, schedule: Q04DX003 (ip), vehicle: saline with Tween-80 95 % of control

N=C(N)CSS(=O)(=O)O
inactive: dose: 12.5 mg/kg/injection, schedule: Q01DX009 (ip), vehicle: Klucel (hydroxypropylcellulose) (HPC) 107 % of control | dose: 12.5 mg/kg/injection, schedule: Q04DX002 (ip), vehicle: Klucel (hydroxypropylcellulose) (HPC) 104 % of control | dose: 25.0 mg/kg/injection, schedule: Q01DX009 (ip), vehicle: Klucel (hydroxypropylcellulose) (HPC) 107 % of control | dose: 25.0 mg/kg/injection, schedule: Q04DX002 (ip), vehicle: Klucel (hydroxypropylcellulose) (HPC) 101 % of control | dose: 50.0 mg/kg/injection, schedule: Q04DX002 (ip), vehicle: Klucel (hydroxypropylcellulose) (HPC) 93 % of control

COC(=O)N1C2C3C(C)=C(C)C2(C)C3(C)S1(=O)=O (stereo not given)
inactive: dose: 100.0 mg/kg/injection, schedule: Q01DX001 (ip), vehicle: Klucel (hydroxypropylcellulose) (HPC) 93 % of control | [4] 101 % of control | dose: 200.0 mg/kg/injection, schedule: Q01DX001 (ip), vehicle: Klucel (hydroxypropylcellulose) (HPC) 93 % of control | [6] 106 % of control | dose: 400.0 mg/kg/injection, schedule: Q01DX001 (ip), vehicle: Klucel (hydroxypropylcellulose) (HPC) 97 % of control

Cc1ccc([N+](=O)[O-])cc1CN(CCO)CCO
inactive: [12] 101 % of control | [13] 95 % of control | [14] 98 % of control

O=C(O)CC(O)C(F)(F)C(F)(F)C(F)(F)F (stereo not given)
inactive: dose: 100.0 mg/kg/injection, schedule: Q01DX009 (ip), vehicle: saline 90 % of control | [18] 100 % of control | dose: 200.0 mg/kg/injection, schedule: Q01DX009 (ip), vehicle: saline 86 % of control | [19] 97 % of control | dose: 400.0 mg/kg/injection, schedule: Q04DX003 (ip), vehicle: saline 87 % of control
